In patent US11180479B2 (HAPLOGEN GmbH, priority 2017, dated 2021):

Experiments:
[1] = molecular target: T1, PLA2G16 (Homo sapiens, UniProt P53816); assay: Enzyme activity assay for PLA2G16 (Red/Green BODIPY PC-A2 fluorescence); assay type: biochemical; settings: His-tagged PLA2G16, 4 min pre-incubation, compound 2 nM to 50 μM; first symbol in parentheses
T1 construct: Hexa-His (N); made in house; host or cells: E. coli BL21(DE3)
T1 sequence (P53816 1-162): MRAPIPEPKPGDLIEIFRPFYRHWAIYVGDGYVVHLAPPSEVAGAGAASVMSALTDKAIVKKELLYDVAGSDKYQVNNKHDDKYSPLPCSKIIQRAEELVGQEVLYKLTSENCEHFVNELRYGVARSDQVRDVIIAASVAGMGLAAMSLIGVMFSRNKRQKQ
Text: Purification and Enzyme Activity Assay for PLA2G16
A cDNA for PLA2G16 (NM_007069) was custom-synthesized by Genscript (Piscataway, USA) and inserted into a pET-based bacterial expression vector [Moffatt, B. A. and Studier, F. W. (1986) J. Mol. Biol. 189, 113-130; Rosenberg, A. H., Lade, B. N., Chui, D., Lin, S., Dunn, J. J., and Studier, F. W. (1987) Gene 56, 125-135], enabling the expression of N-terminally Hexa-His-tagged PLA2G16. E. coli BL21(DE3) (Agilent) were transformed with pET-His-PLA2G16 according to the manufacturer's instructions and plated on Carbenicillin-containing agar plates (final concentration: 100 μg/mL). A single clone was inoculated in 100 mL LB medium supplemented with 100 μg/mL Carbenicillin and the inoculated culture was grown at 37° C. overnight in a rotary shaker. On the next day, the bacterial culture was diluted in LB medium supplemented with 100 μg/mL Carbenicillin (30 mL overnight culture in 800 mL total culture volume). Bacteria were grown at 37° C. until the OD600 reached 0.6. Gene expression was induced by addition of 1 mM isopropyl-β-D-thiogalactopyranosid (IPTG) for 2 h at 18° C. Subsequently, bacteria were harvested by centrifugation (15 min; 10,000×g; 4° C.) and frozen at −80° C. The bacterial pellet was resuspended in Buffer A (50 mM Tris/HCl pH 7.5, 500 mM NaCl, 5% glycerol, 5 mM β-Mercaptoethanol and 1 mM PMSF) and lysed by addition of 1 mg/mL lysozyme (Sigma Aldrich) and 100 μg/mL DNasel-(Roche). The sample was incubated at 30° C. for 30 min to allow lysis to occur. Then, the lysate was cleared by centrifugation (15,000×g, 15 min, 4° C.) and incubated with 1.5 mL Ni-NTA agarose suspension (Qiagen) for 60 min at 4° C. The Ni-NTA agarose was washed with 10 mL Buffer A. Bound protein was eluted by applying a manual gradient of Buffer A supplemented with increasing concentrations of imidazole (Sigma Aldrich; 25/50/75/100/250 mM). Purified fractions were analyzed by SDS-PAGE followed by Coomassie staining to assess the purity.
Activity of the protein was assessed as follows:
Red/Green BODIPY® PC-A2 (Invitrogen, 1 mM in DMSO) was mixed with equal volumes of 1,2-Dioleoyl-sn-glycero-3-phosphocholine (DOPC; Sigma Aldrich, 10 mM in Ethanol) and 1,2-Dioleoyl-sn-glycero-3-phospho-rac-(1-glycerol) (DOPG; Sigma Aldrich, 10 mM in Ethanol) and 0.5 volumes of Cholesterol (CHOL; Sigma Aldrich, 10 mM in Ethanol) and vortexed for 5 s. The mixture (Red/Green BODIPY® PC-A2/DOPC/DOPG/CHOL) was diluted 1:91.4 in activity assay buffer (50 mM Tris/HCl pH 8.5, 100 mM NaCl) using a small-orifice pipette tip under constant vortexing. In the following, this preparation will be referred to as the “substrate solution”.
In order to evaluate their inhibitory potential, compounds were dissolved at 10 mM concentration in DMSO and directly spotted into assay plates (Corning, Cat. No. 3576) using acoustic liquid transfer (Labcyte Echo 525). Each compound was spotted at increasing concentrations, ranging from 2 nM to 50 μM (concentration in the final assay volume). 50 μl of PLA2G16 enzyme solution (diluted in activity buffer, supplemented with 5 mM L-Glutathione; Sigma Aldrich) was pre-incubated with compounds for 4 min., followed by addition of 50 μl of substrate solution. Fluorescence was recorded immediately after substrate addition for a total time of 10 min. using a SpectraMax M5 multimode reader (Excitation wavelength: 480 nm, emission wavelength: 530 nm). The relative increase of fluorescence over time is referred to as the enzyme activity. Half-maximal inhibitory concentrations (IC50) were derived by non-linear regression analysis using the drc package in R (R Development. Core Team, 2005).

[2] = test system: picornaviruses (CVB1, HRV-A2, HRV-A23, EV-68); assay: Anti-picornavirus cytopathic effect (CPE) reduction assay on HeLa H1 cells; assay type: cell-based; settings: 48 h, category from averaging EC50 values of four picornaviruses (CVB1, HRV-A2, HRV-A23, EV68), second symbol in parentheses
Experimental: Anti-Picornavirus Assay in Mammalian Cell Culture
The antiviral activity of selected compounds was tested using a cytopathic effect (CPE) reduction assay on HeLa H1 cells (ATCC CRL-1958). Briefly, cells were seeded in 96-well dishes (2×10^4 cells/well) in DMEM medium (Life technologies) supplemented with 10% FBS and PenStrep solution (100 U/mL Penicillin and 100 μg/mL streptomycin) and incubated at 37° C., 5% CO2 overnight. The next day, cells were pre-treated with serial dilutions of the compound in DMEM medium supplemented with 2% FBS and PenStrep for 2 h at 37° C., 5% CO2. Next, cells were infected with virus (CVB1, HRV-A2, HRV-A23, EV-68) at an multiplicity of infection (MOI) which results in a complete virus-induced CPE within 2 days in control wells (infected and vehicle-treated). After 48 h, supernatants were aspirated and 50 μl/well of CellTiterBlue reagent (Promega) diluted 1:5 in DMEM+2% FBS, was added to the cells. Plates were returned to the incubator and allowed to develop for 1.5 h. After that, plates were equilibrated to RT and subsequently, fluorescence was recorded (Excitation wavelength: 560 nm; emission wavelength: 590 nm) using a SpectraMax M5 multimode plate reader. Viability of cells was calculated according to the formula: V=(RFUCpd−RFUVeh/(RFUM−RFUVeh), where RFUCpd refers to infected and compound-treated cells, RFUVeh to infected and vehicle-treated cells and RFUM to uninfected and vehicle treated cells. Half-maximal effective concentrations (EC50) were calculated by non-linear regression analysis using the drc package in R (R Development. Core Team, 2005). EC50 categories as presented in Table 2 were calculated by averaging the EC50 values from four picornaviruses (CVB1, HRV-A2, HRV-A23, EV68).

Row | SMILES | IC50 [1] | EC50 [2]
1 | CNC(=O)CN1C[C@H](C(=O)C(=O)NCC(C)C)[C@@H](Cc2ccccc2)C1=O (racemic) [FP-43, Rac-2-[(3R,4R)-4-benzyl-1-[(methylcarbamoyl)methyl]-5-oxopyrrolidin-3-yl]-N-(2-methylpropyl)-2-oxoacetamide] | < 1000 nM | 1000 to 10000 nM
2 | CC(F)(F)CNC(=O)C(=O)[C@H]1CNC(=O)[C@@H]1c1ccccc1 (single isomer, unassigned) [FP-88] | < 1000 nM | < 1000 nM
3 | Cn1ncnc1CN1C[C@H](C(=O)C(=O)NCC(C)(F)F)[C@@H](Cc2ccc(F)cc2)C1=O (racemic) [FP-53, Rac-N-(2,2-difluoropropyl)-2-[(3R,4R)-4-[(4-fluorophenyl)methyl]-1-[(1-methyl-1H-1,2,4-triazol-5-yl)methyl]-5-oxopyrrolidin-3-yl]-2-oxoacetamide] | < 1000 nM | 1000 to 10000 nM
4 | CC(C)NC(=O)C(=O)[C@H]1CNC(=O)[C@@H]1c1ccc(F)cc1 (racemic) [FP-27, Rac-2-[(3R,4S)-4-(4-fluorophenyl)-5-oxopyrrolidin-3-yl]-2-oxo-N-(propan-2-yl)acetamide] | < 1000 nM | 1000 to 10000 nM
5 | CCNC(=O)C(=O)[C@H]1CN(c2cncnc2)C(=O)[C@@H]1Cc1ccccc1 (racemic) [FP-55, Rac-2-[(3R,4R)-4-benzyl-5-oxo-1-(pyrimidin-5-yl)pyrrolidin-3-yl]-N-ethyl-2-oxo-acetamide] | < 1000 nM | < 1000 nM
6 | Cn1cc(N2C[C@H](C(=O)C(=O)NCC(C)(F)F)[C@@H](Cc3ccccc3)C2=O)cn1 (racemic) [FP-76, Rac-2-[(3R,4R)-4-benzyl-1-(1-methyl-1H-pyrazol-4-yl)-5-oxopyrrolidin-3-yl]-N-(2,2-difluoropropyl)-2-oxoacetamide] | < 1000 nM | < 1000 nM
7 | O=C(NC1CC1)C(=O)[C@H]1CN(CC(F)F)C(=O)[C@@H]1Cc1ccccc1 (racemic) [FP-49, Rac-2-[(3R,4R)-4-benzyl-1-(2,2-difluoroethyl)-5-oxopyrrolidin-3-yl]-N-cyclopropyl-2-oxoacetamide] | < 1000 nM | < 1000 nM
8 | CC(C)ONC(=O)C(=O)[C@H]1CNC(=O)[C@@H]1Cc1ccccc1 (racemic) [FP-8, Rac-2-[(3R,4R)-4-benzyl-5-oxopyrrolidin-3-yl]-2-oxo-N-(propan-2-yloxy)acetamide] | < 1000 nM | 1000 to 10000 nM
9 | CC(C)(C)NC(=O)C(=O)[C@H]1CNC(=O)[C@@H]1c1ccccc1 (racemic) [FP-17, Rac-N-tert-butyl-2-oxo-2-[(3R,4S)-5-oxo-4-phenylpyrrolidin-3-yl]acetamide] | < 1000 nM | < 1000 nM
10 | O=C(NCC1CC1)C(=O)[C@@H]1CNC(=O)[C@H]1c1ccccc1 (single isomer, unassigned) [FP-85] | < 1000 nM | > 10000 nM
11 | CC(C)CNC(=O)C(=O)[C@H]1CN(CC(=O)N(C)C)C(=O)[C@@H]1Cc1ccccc1 (racemic) [FP-44, Rac-2-[(3R,4R)-3-benzyl-4-{[(2-methylpropyl)carbamoyl]carbonyl}-2-oxopyrrolidin-1-yl]-N,N-dimethylacetamide] | < 1000 nM | < 1000 nM

The next lines start with the values.

Row | IC50 [1] | EC50 [2] | SMILES
12 | < 1000 nM | 1000 to 10000 nM | O=C(NCC(F)(F)C(F)(F)F)C(=O)[C@H]1CNC(=O)[C@@H]1c1ccccc1 (racemic) [FP-25, Rac-2-oxo-2-[(3R,4S)-5-oxo-4-phenylpyrrolidin-3-yl]-N-(2,2,3,3,3-pentafluoro-propyl)acetamide]
13 | < 1000 nM | < 1000 nM | CC(C)CNC(=O)C(=O)[C@H]1CNC(=O)[C@@H]1c1ccccc1 (racemic) [FP-13, Rac-N-(2-methylpropyl)-2-oxo-2-[(3R,4S)-5-oxo-4-phenylpyrrolidin-3-yl]acetamide]
14 | < 1000 nM | 1000 to 10000 nM | Cc1ncncc1N1C[C@H](C(=O)C(=O)NCC(C)(F)F)[C@@H](Cc2ccccc2)C1=O (racemic) [FP-68, Rac-2-[(3R,4R)-4-benzyl-1-(4-methylpyrimidin-5-yl)-5-oxopyrrolidin-3-yl]-N-(2,2-difluoropropyl)-2-oxoacetamide]
15 | < 1000 nM | 1000 to 10000 nM | O=C(NC1CC1)C(=O)[C@H]1CN(c2ncccn2)C(=O)[C@@H]1Cc1ccccc1 (racemic) [FP-58, Rac-2-[(3R,4R)-4-benzyl-5-oxo-1-(pyrimidin-2-yl)pyrrolidin-3-yl]-N-cyclopropyl-2-oxoacetamide]
16 | < 1000 nM | 1000 to 10000 nM | CN1C[C@H](C(=O)C(=O)NC2CC2)[C@@H](C2CCCCC2)C1=O (racemic) [FP-38, Rac-2-[(3R,4R)-4-cyclohexyl-1-methyl-5-oxopyrrolidin-3-yl]-N-cyclopropyl-2-oxoacetamide]
17 | < 1000 nM | < 1000 nM | O=C(NCC1CC1)C(=O)[C@H]1CNC(=O)[C@@H]1Cc1ccccc1 (racemic) [FP-1, Rac-2-[(3R,4R)-4-benzyl-5-oxopyrrolidin-3-yl]-N-(cyclopropylmethyl)-2-oxoacetamide]
18 | < 1000 nM | < 1000 nM | O=C(NCC(F)F)C(=O)[C@H]1CNC(=O)[C@@H]1Cc1ccccc1 (single isomer, unassigned) [FP-83]
19 | < 1000 nM | < 1000 nM | O=C(NC1CC1)C(=O)[C@H]1CN(CC2CCOCC2)C(=O)[C@@H]1Cc1ccccc1 (racemic) [FP-32, Rac-2-[(3R,4R)-4-benzyl-1-[(oxan-4-yl)methyl]-5-oxopyrrolidin-3-yl]-N-cyclopropyl-2-oxoacetamide]
20 | < 1000 nM | – | NC(=O)c1ccc(CN2C[C@H](C(=O)C(=O)NC3CC3)[C@@H](Cc3ccccc3)C2=O)cc1 (racemic)
